Experimental findings from US12116343B2, “Inhibitors of APOL1 and methods of using same” (Vertex Pharmaceuticals Incorporated, priority 2020, dated 2024) are described below.

SMILES strings stand for the structures. Some results are limits rather than exact numbers.

In this assay the target is T1, G1 APOL1 (Homo sapiens, UniProt O14791, I384M/S342G).
T1 construct: expressed in transfected cells
T1 sequence (O14791 28-398 S342G/I384M): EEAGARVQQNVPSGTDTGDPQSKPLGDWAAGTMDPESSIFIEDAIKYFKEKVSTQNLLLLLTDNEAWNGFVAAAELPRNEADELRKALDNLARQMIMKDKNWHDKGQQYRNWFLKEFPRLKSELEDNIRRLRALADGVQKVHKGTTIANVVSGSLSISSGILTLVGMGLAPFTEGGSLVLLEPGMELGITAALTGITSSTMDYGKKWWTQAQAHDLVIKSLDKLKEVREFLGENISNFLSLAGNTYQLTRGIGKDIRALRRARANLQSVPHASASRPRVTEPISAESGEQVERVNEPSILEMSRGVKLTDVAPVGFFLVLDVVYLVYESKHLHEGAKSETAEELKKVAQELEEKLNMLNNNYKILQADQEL
The assay is described as follows: Acute APOL1 Thallium Assay with inducible stable clones of HEK 293 cells. Format: cell-based. The following applies: Table 24, Compounds 287 to 465; read-out: Thallium Assay (IC50). The text has this: Acute APOL1 Thallium Assay with Inducible Stable Clones of HEK 293 Cells
Apolipoprotein L1 (APOL1) proteins form potassium-permeable cation pores in the plasma membrane. APOL1 risk variants (G1 and G2) induce greater potassium flux than G0 in HEK293 cells. This assay exploits the permeability of thallium (Tl+) through ligand-gated potassium channels. The dye produces a bright fluorescent signal upon binding to Tl+ conducted through potassium channels. The intensity of the Tl+ signal is proportional to the number of potassium channels in the open state. Therefore, it provides a functional indication of the potassium channel activities. During the initial dye-loading step, the Tl+ indicator dye as an acetoxymethyl (AM) ester enters the cells through passive diffusion. Cytoplasm esterases cleave the AM ester and relieve its active thallium-sensitive form. The cells are then stimulated with Tl+. The increase of fluorescence in the assay represents the influx of Tl+ into the cell specifically through the potassium channel (i.e. through APOL1 pores), providing a functional measurement of potassium channel/pore activity. The Thallium assay is conducted with cells expressing G1 APOL1.
APOL1 Cell Line (HEK T-Rex Stable Inducible Cell Line) • HEK T-Rex System • Tetracycline (Tet) inducible mammalian expression system. • Stably express the Tet repressor to regulate transcription. • Expression under the full-length CMV promoter. • APOL1 stable inducible cell line Clone used: G1 DC3.25
Tissue Culture Media • Cell Culture Medium • DMEM+10% FBS+P/S+5 μg/mL blasticidin+1 μg/mL puromycin. • 500 mL DMEM+55 mL FBS+5 mL P/S+280 μL blasticidin S HCl (10 mg/mL)+56 μL puromycin (10 mg/mL). • Cell Assay Medium • DMEM with 2% FBS+pen strep.
Instruments and Equipment • Nuaire cell culture hood, Cat. No. 540-600 • 37° C./5% CO2 incubator link to robotic arm, Liconic: STX110 • Molecular Devices FLIPR^Tetra High throughput cellular screening system, Cat. No. FT0324, Molecular Devices • ThermoFisher MultiDrop 384, Cat. No. 5840300 • Biotek Microfill, Cat. No. ASF1000A-4145 • BioRad TC10 cell counter, Cat. No. 145-0010 Assay Procedures
Cells Scaled Up from Frozen Vials • APOL1 G1 3.25 (HEK293 T-Rex) frozen vials: 5 million cells per vial • Step 1, Day 1: Defrost frozen vial into T-225. • Step 2, Day 5: (when 85% confluent): Split one T-225 at 3×10^6 cells per flask. • Step 3, Day 8: Splits cells to set up for the assay plates as described below.
T-Rex APOL1 HEK cells are split twice per week to keep the confluence state below 85% of the culture flask surface area. Cells can be kept until passage 25. • Cell Culture Medium • DMEM high glucose+10% FBS, +P/S, +5 μg/mL blasticidin, +1 μg/mL puromycin. • 500 mL DMEM, +55 mL FBS, +5 mL P/S, +280 μL blasicidin 10 mg/mL, +56 μL Puromycin 10 mg/mL. • Assay Media • Opti-MEM reduced serum medium from Invitrogen.
Preparation of Cell Assay Plates • Culture medium is removed from the x cm^2 T-flask by aspiration. • The cell monolayer is rinsed with PBS 1× at room temperature. PBS is removed by aspiration. • Cells are trypsinized using Trypsin. • The flasks are incubated at room temperature for 2-3 minutes. • Complete DMEM medium is then added. Cell suspension is then transferred to a 50 mL Falcon polypropylene tube. • Cells are then counted using a Biorad TC10 cell counter and the required amount of cells are centrifuged at 1200 RPM for 5 minutes. Required amount is 1.3×10^6 cells/mL APOL1 T-Rex HEK cells. • The pellet is suspended in the assay medium. • Using the MultiDrop, add 20 μL to each well (corresponds to 26000 cells total per well) of a 384-well black, transparent, flat bottom Poly-D coated plate. • Tetracycline as prepared in the following section is added to the cells before plating to induce APOL1 expression. • Plates are left at room temperature for 20 to 30 minutes before incubation at 37° C. and 5% CO2. […]
Turning to `CC(C)NC(=O)CN[C@H]1C[C@H](c2c(-c3ccc(F)cc3)[nH]c3c(F)cc(F)cc32)C1` [Compound 290], the IC50 (usually the concentration needed to halve the response being measured) is greater than 1000 nM.

Consider `CNC(=O)CN[C@H]1C[C@H](c2c(-c3ccc(F)cc3)[nH]c3c(F)cc(F)cc32)C1` [Compound 291], for which the IC50 is 250 to 1000 nM.

With `CON(C)C(=O)CN[C@H]1C[C@H](c2c(-c3ccc(F)cc3)[nH]c3c(F)cc(F)cc32)C1` [Compound 292], the IC50 is greater than 1000 nM.

In the case of `O=C(CN[C@H]1C[C@H](c2c(-c3ccc(F)cc3)[nH]c3c(F)cc(F)cc32)C1)NC1CC1` [Compound 293], the IC50 is greater than 1000 nM.

In the case of `NC(=O)CN[C@H]1C[C@H](c2c(-c3ccc(F)cc3)[nH]c3c(F)cc(F)cc32)C1` [Compound 294], the IC50 is greater than 1000 nM.

As for `C[C@@H](CO)NC(=O)N[C@H]1C[C@H](c2c(-c3ccc(F)cc3)[nH]c3c(F)cc(F)cc32)C1` [Compound 295, 1-((1r,3S)-3-(5,7-difluoro-2-(4-fluorophenyl)-1H-indol-3-yl)cyclobutyl)-3-((S)-1-hydroxypropan-2-yl)urea], the 50% inhibitory concentration (IC50) fell in the range of 250 to 1000 nM.

As for `C[C@@H](O)CNC(=O)N[C@H]1C[C@H](c2c(-c3ccc(F)cc3)[nH]c3c(F)cc(F)cc32)C1` [Compound 296], the IC50 was greater than 1000 nM.

Turning to `O=C(N[C@H]1CCNC1=O)N[C@H]1C[C@H](c2c(-c3ccc(F)cc3)[nH]c3c(F)cc(F)cc32)C1` [Compound 297], the IC50 is greater than 1000 nM.

`O=C(NC(CO)CO)N[C@H]1C[C@H](c2c(-c3ccc(F)cc3)[nH]c3c(F)cc(F)cc32)C1` [Compound 298]: the IC50 is greater than 1000 nM.

For the compound `O=C(NCCO)C1CC(Cc2c(-c3ccc(F)cc3)[nH]c3c(F)cc(F)cc23)C1` (stereo not drawn) [Compound 299, 3-[[5,7-difluoro-2-(4-fluorophenyl)-1H-indol-3-yl]methyl]-N-(2-hydroxyethyl)cyclobutane-1-carboxamide], the IC50 lay within 250 to 1000 nM.

Regarding `C[C@H](O)CNC(=O)C1CC(Cc2c(-c3ccc(F)cc3)[nH]c3c(F)cc(F)cc23)C1` (stereo partly drawn) [Compound 300], the IC50 is greater than 1000 nM.

For `O=C(NCC(O)C(F)F)C1CC(Cc2c(-c3ccc(F)cc3)[nH]c3c(F)cc(F)cc23)C1` (stereo not drawn) [Compound 301], the IC50 is greater than 1000 nM.

`CC(C)C[C@H](CO)NC(=O)C1CC(Cc2c(-c3ccc(F)cc3)[nH]c3c(F)cc(F)cc23)C1` (stereo partly drawn) [Compound 302]: the IC50 was greater than 1000 nM.

On to `N#CC(CO)NC(=O)C1CC(Cc2c(-c3ccc(F)cc3)[nH]c3c(F)cc(F)cc23)C1` (stereo not drawn) [Compound 303], for which the IC50 is greater than 1000 nM.

With `Cc1noc(CNC(=O)C2CC(Cc3c(-c4ccc(F)cc4)[nH]c4c(F)cc(F)cc34)C2)n1` (stereo not drawn) [Compound 304], the IC50 was greater than 1000 nM.

For the compound `O=C(N[C@H]1CCOC1=O)C1CC(Cc2c(-c3ccc(F)cc3)[nH]c3c(F)cc(F)cc23)C1` (stereo partly drawn) [Compound 305], the half-inhibitory concentration (IC50) is greater than 1000 nM.

Take `O=C(N[C@@H](CO)C(F)(F)F)C1CC(Cc2c(-c3ccc(F)cc3)[nH]c3c(F)cc(F)cc23)C1` (stereo partly drawn) [Compound 306]: the IC50 is greater than 1000 nM.

Take `C[C@@H](O)CNC(=O)C1CC(Cc2c(-c3ccc(F)cc3)[nH]c3c(F)cc(F)cc23)C1` (stereo partly drawn) [Compound 307]: the IC50 is greater than 1000 nM.

Regarding `CC1(NC(=O)C2CC(Cc3c(-c4ccc(F)cc4)[nH]c4c(F)cc(F)cc34)C2)CCNC1=O` (stereo not drawn) [Compound 308], the half-maximal inhibitory concentration (IC50) was greater than 1000 nM.

For the compound `O=C(NC1(CO)CC(F)(F)C1)C1CC(Cc2c(-c3ccc(F)cc3)[nH]c3c(F)cc(F)cc23)C1` (stereo not drawn) [Compound 309], the IC50 was greater than 1000 nM.

On to `O=C(Nc1c[nH][nH]c1=O)C1CC(Cc2c(-c3ccc(F)cc3)[nH]c3c(F)cc(F)cc23)C1` (stereo not drawn) [Compound 310], for which the IC50 is greater than 1000 nM.

`O=C(NC1(CCO)CC1)C1CC(Cc2c(-c3ccc(F)cc3)[nH]c3c(F)cc(F)cc23)C1` (stereo not drawn) [Compound 311]: the 50% inhibitory concentration (IC50) is greater than 1000 nM.

As for `O=C(NCc1ccc[nH]c1=O)C1CC(Cc2c(-c3ccc(F)cc3)[nH]c3c(F)cc(F)cc23)C1` (stereo not drawn) [Compound 313], the IC50 was greater than 1000 nM.

For the compound `Cn1cnc(CNC(=O)C2CC(Cc3c(-c4ccc(F)cc4)[nH]c4c(F)cc(F)cc34)C2)c1` (stereo not drawn) [Compound 314], the IC50 was greater than 1000 nM.

As to `O=C(NCC1(O)CCCC1)C1CC(Cc2c(-c3ccc(F)cc3)[nH]c3c(F)cc(F)cc23)C1` (stereo not drawn) [Compound 315], the IC50 is greater than 1000 nM.

For the compound `CS(=O)(=O)CCNC(=O)C1CC(Cc2c(-c3ccc(F)cc3)[nH]c3c(F)cc(F)cc23)C1` (stereo not drawn) [Compound 316], the half-maximal inhibitory concentration (IC50) is greater than 1000 nM.

Regarding `O=C(NCc1ccoc1)C1CC(Cc2c(-c3ccc(F)cc3)[nH]c3c(F)cc(F)cc23)C1` (stereo not drawn) [Compound 317], the IC50 is greater than 1000 nM.

Consider `CC(C)(O)CNC(=O)C1CC(Cc2c(-c3ccc(F)cc3)[nH]c3c(F)cc(F)cc23)C1` (stereo not drawn) [Compound 318], for which the IC50 was greater than 1000 nM.

`COCC1(CNC(=O)C2CC(Cc3c(-c4ccc(F)cc4)[nH]c4c(F)cc(F)cc34)C2)CC1` (stereo not drawn) [Compound 319]: the concentration for half-maximal inhibition (IC50) was greater than 1000 nM.

For the compound `CC(=O)NCCNC(=O)C1CC(Cc2c(-c3ccc(F)cc3)[nH]c3c(F)cc(F)cc23)C1` (stereo not drawn) [Compound 320], the IC50 is greater than 1000 nM.

Take `O=C(NCC1CCCO1)C1CC(Cc2c(-c3ccc(F)cc3)[nH]c3c(F)cc(F)cc23)C1` (stereo not drawn) [Compound 321]: the IC50 is greater than 1000 nM.

With `O=C(NCC1(O)CCC1)C1CC(Cc2c(-c3ccc(F)cc3)[nH]c3c(F)cc(F)cc23)C1` (stereo not drawn) [Compound 322], the IC50 was greater than 1000 nM.

For the compound `O=C(NCC1(CO)CC1)C1CC(Cc2c(-c3ccc(F)cc3)[nH]c3c(F)cc(F)cc23)C1` (stereo not drawn) [Compound 323], the IC50 was greater than 1000 nM.

Take `CC(O)(CO)CNC(=O)C1CC(Cc2c(-c3ccc(F)cc3)[nH]c3c(F)cc(F)cc23)C1` (stereo not drawn) [Compound 324]: the IC50 was greater than 1000 nM.

As for `CC1(O)CC(NC(=O)C2CC(Cc3c(-c4ccc(F)cc4)[nH]c4c(F)cc(F)cc34)C2)C1` (stereo not drawn) [Compound 325], the IC50 was greater than 1000 nM.

As to `O=C(NCC1CCOCC1)C1CC(Cc2c(-c3ccc(F)cc3)[nH]c3c(F)cc(F)cc23)C1` (stereo not drawn) [Compound 326], the IC50 is greater than 1000 nM.

For the compound `CC(C)(O)CCNC(=O)C1CC(Cc2c(-c3ccc(F)cc3)[nH]c3c(F)cc(F)cc23)C1` (stereo not drawn) [Compound 327], the IC50 was greater than 1000 nM.

As for `O=C(NCC1CC(F)(F)C1)C1CC(Cc2c(-c3ccc(F)cc3)[nH]c3c(F)cc(F)cc23)C1` (stereo not drawn) [Compound 328], the half-maximal inhibitory concentration (IC50) was greater than 1000 nM.

As for `C[C@H](NC(=O)C1CC(Cc2c(-c3ccc(F)cc3)[nH]c3c(F)cc(F)cc23)C1)C(C)(C)O` (stereo partly drawn) [Compound 329], the IC50 was greater than 1000 nM.

`O=C(NCC1CCOC1)C1CC(Cc2c(-c3ccc(F)cc3)[nH]c3c(F)cc(F)cc23)C1` (stereo not drawn) [Compound 330]: the half-maximal inhibitory concentration (IC50) is greater than 1000 nM.

Turning to `O=C(NCc1cnn(CC(F)(F)F)c1)C1CC(Cc2c(-c3ccc(F)cc3)[nH]c3c(F)cc(F)cc23)C1` (stereo not drawn) [Compound 331], the half-maximal inhibitory concentration (IC50) was greater than 1000 nM.

Consider `Cc1c(CNC(=O)C2CC(Cc3c(-c4ccc(F)cc4)[nH]c4c(F)cc(F)cc34)C2)cnn1C` (stereo not drawn) [Compound 333], for which the IC50 was greater than 1000 nM.
